Series [1] in a line: Solubility of zinc complexes. The format is physicochemical.
The subject of a further series is human tumor cell lines. Nature of the series: Cell growth inhibition assay (Calcein AM). The series is classed as cell-based. The settings on record: for EC50: Calcein AM, incubation for 3 days; for Fold (Zn-1/compound) / Fold (compound/Zn-1): ratio of EC50s. The protocol: (§1) Cell growth inhibition assay using human tumor cell lines with different p53 status (wildtype, null, p53-R175H or other zinc binding deficient mutants) are employed to determine if a test compound functions as a zinc metallochaperone to restore wildtype p53 functions. Five thousand cells per well are cultured in 96-well plate to reach the 50% confluence on the second day when treated with serial dilutions of the compounds. Growth is measured by Calcein AM assay after incubation for 72 hours.
The cell growth inhibition assay was performed by Calcein AM assay (Trevigen). Five thousand cells per well were cultured in 96-well plate to reach the 50% confluence on the second day when treated with serial dilutions of the compounds. Growth was measured by Calcein AM assay (Trevigen) and Victor Plate reader instrument (PerkinElmer) after incubation for 3 days.

The test system of series [2] is p53 target genes p21, PUMA and GDF15. Briefly: Quantitative PCR of p53 target genes (restoration of wild type transcriptional function). The format is cell-based. The note with it: for p21, PUMA and GDF15 levels: quantitative PCR.
For a further series, the system named is p53R175H cells. Nature of the series: Potency against p53R175H cells in vitro, compared with the monomer from Zn-1. The format is cell-based. The protocol: as §1
Series [3] deals with T1, mutant p53 (Homo sapiens, UniProt P04637, R175H).
T1 construct: endogenous in cells; host or cells: p53-R175H cells (e.g. TOV112D)
Nature of the series: Immunofluorescent staining with p53 conformation specific antibodies (PAB240, PAB1620). The series is classed as cell-based. The note with it: PAB 1620 (wild type specific). The protocol:
An immunofluorescent staining using p53 conformation specific antibodies is used to determine if a test compound could induce the mutant p53 protein refolding to a wildtype conformation. The p53-R175H cells (e.g. TOV112D) cultured in DMEM+10% FBS are treated with a test compound for 6 hours, then fixed and stained with the antibodies PAB1620 (recognizing WT conformation) and PAB240 (recognizing misfolded/unfolded conformation) respectively.

The next series addresses T2, COX1(h) (Homo sapiens, UniProt P23219).
T2 construct: Eurofins (Cerep) SafetyScreen44 panel, contract screen P270
Nature of the series: CEREP-44 Safety Screen: COX1. The format is biochemical. On the set-up: dose or concentration left out as unconfirmed.

Series [4] concerns the target T1, mutant p53. Nature of the series: Cell growth inhibition after mutant p53 knock-down using siRNA. The series is classed as cell-based. The settings on record: mutant p53 knocked down using an siRNA.
In the next series the target is T3, 5-HT2B (Homo sapiens, UniProt P41595).
T3 construct: Eurofins (Cerep) SafetyScreen44 panel, contract screen P270
Nature of the series: CEREP-44 Safety Screen: 5-HT2B. The series is classed as binding. The arrangement: dose or concentration left out as unconfirmed.

A further series concerns the target T4, COX2(h) (Homo sapiens, UniProt P35354).
T4 construct: Eurofins (Cerep) SafetyScreen44 panel, contract screen P270
T4 sequence (P35354 18-604): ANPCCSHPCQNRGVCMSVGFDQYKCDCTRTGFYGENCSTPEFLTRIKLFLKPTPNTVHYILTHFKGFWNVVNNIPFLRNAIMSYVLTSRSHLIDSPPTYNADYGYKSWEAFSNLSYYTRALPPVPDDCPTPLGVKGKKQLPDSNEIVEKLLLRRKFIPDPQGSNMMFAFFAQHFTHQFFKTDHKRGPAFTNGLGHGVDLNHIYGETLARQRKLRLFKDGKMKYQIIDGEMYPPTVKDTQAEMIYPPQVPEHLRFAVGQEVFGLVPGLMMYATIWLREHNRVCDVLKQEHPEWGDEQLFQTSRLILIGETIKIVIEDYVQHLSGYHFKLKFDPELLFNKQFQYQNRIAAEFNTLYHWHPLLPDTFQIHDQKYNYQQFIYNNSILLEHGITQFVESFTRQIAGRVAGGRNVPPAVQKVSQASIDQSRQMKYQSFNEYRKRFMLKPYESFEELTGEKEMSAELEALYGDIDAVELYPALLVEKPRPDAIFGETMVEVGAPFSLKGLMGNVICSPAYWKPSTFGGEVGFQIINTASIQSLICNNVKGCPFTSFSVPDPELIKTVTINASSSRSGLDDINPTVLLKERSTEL
Briefly: CEREP-44 Safety Screen: COX2. The series is classed as biochemical. The arrangement: dose or concentration left out as unconfirmed.

The EC50 is the concentration that produces a half-maximal response.

Entries after “also recorded” stand apart in the source; their conditions may differ.

T2 sequence (P23219 24-599): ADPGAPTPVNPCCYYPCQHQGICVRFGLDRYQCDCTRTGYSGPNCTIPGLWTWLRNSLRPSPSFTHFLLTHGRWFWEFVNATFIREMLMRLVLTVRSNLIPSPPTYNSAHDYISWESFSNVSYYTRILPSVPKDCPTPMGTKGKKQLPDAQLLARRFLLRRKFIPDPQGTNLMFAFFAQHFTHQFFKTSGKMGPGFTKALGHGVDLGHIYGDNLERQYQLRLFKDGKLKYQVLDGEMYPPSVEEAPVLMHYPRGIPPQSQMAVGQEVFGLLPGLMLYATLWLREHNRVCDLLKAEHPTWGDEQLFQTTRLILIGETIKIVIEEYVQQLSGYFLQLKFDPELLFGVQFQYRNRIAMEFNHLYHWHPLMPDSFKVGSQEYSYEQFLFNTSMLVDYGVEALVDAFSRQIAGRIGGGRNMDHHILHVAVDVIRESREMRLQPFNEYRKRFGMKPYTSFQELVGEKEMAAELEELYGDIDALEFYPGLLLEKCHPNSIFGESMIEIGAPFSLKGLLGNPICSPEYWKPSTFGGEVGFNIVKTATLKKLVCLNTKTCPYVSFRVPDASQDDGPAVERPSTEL
T3 sequence (P41595 whole entry): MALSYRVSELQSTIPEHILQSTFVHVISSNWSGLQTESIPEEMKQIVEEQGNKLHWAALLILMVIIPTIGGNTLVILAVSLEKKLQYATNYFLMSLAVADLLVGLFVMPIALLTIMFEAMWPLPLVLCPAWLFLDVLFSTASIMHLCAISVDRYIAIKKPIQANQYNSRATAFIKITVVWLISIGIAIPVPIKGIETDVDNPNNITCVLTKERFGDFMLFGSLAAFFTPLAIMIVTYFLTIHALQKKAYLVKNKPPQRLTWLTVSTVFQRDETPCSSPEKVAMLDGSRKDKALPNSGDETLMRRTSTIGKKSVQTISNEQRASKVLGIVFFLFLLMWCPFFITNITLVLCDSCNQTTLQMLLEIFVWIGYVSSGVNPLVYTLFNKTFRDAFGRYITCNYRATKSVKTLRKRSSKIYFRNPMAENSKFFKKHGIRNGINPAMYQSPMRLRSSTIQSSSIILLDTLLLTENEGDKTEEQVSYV

On to `C/C(=N\NC(=S)N1CCC1)c1ccccn1` [ZMC-1, reference compound], for which the “Solubility DMSO (3 mg/ml)” value in [1] (DMSO 4 mg/ml column, cell annotated (3 mg/ml)) is “Yes”.
Regarding `C/C(=N\NC(=S)N1CCC1)c1ccccn1` [ZN-1, reference compound], the EC50 in the series with human tumor cell lines (Homo sapiens, 72 h) is 2.69 nM. The “p21, PUMA and GDF15 levels” value in [2] was “markedly induced”. In addition, the “More potent than the monomer from Zn-1” value in the series with p53R175H cells was 3 fold. In addition, in series [1], the “Solubility DMSO 4 mg/ml” value is listed as “Yes”, the “Solubility DMSO 10 mg/ml” value is listed as “No”, the “Solubility EtOH 1 mg/ml” value was “No” and the “Solubility EtOH 2 mg/ml” value was “No”. For the same molecule, the “Solubility H2O:DMSO 1:1 0.5 mg/mL” value in [1] is “No”.
As to `COc1ccnc(/C(C)=N/NC(=S)N(C)C)c1.COc1ccnc(/C(C)=N/NC(=S)N(C)C)c1.[Zn]` [Zn-11, Zn[(E)-2-(1-(4-methoxypyridin-2-yl)ethylidene)-N,N-dimethylhydrazine-1-carbothioamide]2], in the series on human tumor cell lines, the concentration giving a half-maximal response (EC50) is 0.22 nM, the “Fold (Zn-1/compound)” value was 12.2 and the “Fold (compound/Zn-1)” value is reported as 0.1. Moreover, in the series with p53R175H cells, the “More potent than the monomer from Zn-1” value came to 209 fold. Also, in series [1], the “Solubility DMSO 4 mg/ml” value is “Yes”, the “Solubility DMSO 10 mg/ml” value is reported as “Yes”, the “Solubility EtOH 1 mg/ml” value is given as “Partial” and the “Solubility H2O:DMSO 1:1 0.5 mg/mL” value is given as “No at 0.5”. For the same molecule, the “Qualitative relative solubility in 1:1 DMSO:water” value in [1] (H2O:DMSO 1:1 at 0.5 mg/mL, compared among Zn-8, Zn-11 and Zn-14) is “qualitatively more soluble; also recorded: *Qualitatively slightly more soluble compared with Zn-8 and Zn-14”.
As for `C/C(=N\NC(=S)N(C)C)c1ccc(O[C@H]2CCOC2)cn1.C/C(=N\NC(=S)N(C)C)c1ccc(O[C@H]2CCOC2)cn1.[Zn]` [Zn-15, Zn[(S,E)-N,N-dimethyl-2-(1-(5-((tetrahydrofuran-3-yl)oxy)pyridin-2-yl)ethylidene)hydrazine-1-carbothioamide]2], in the series with human tumor cell lines, the EC50 is 7.08 nM, the “Fold (Zn-1/compound)” value is reported as 2.6 and the “Fold (compound/Zn-1)” value is on record as 0.4.
Take “Zn[(E)-2-(1-(4-(2-methoxyethoxy)pyridin-2-yl)ethylidene)-N,N-dimethylhydrazine-1-carbothioamide]2 [ZN-8]”: on mutant p53 [3], the “Wild type conformation change of mutant p53” value was “induces a wild type conformation change”. In the series with human tumor cell lines, the half-maximal effective concentration (EC50) was 0.37 nM, the “Fold (Zn-1/compound)” value is listed as 7.3 and the “Fold (compound/Zn-1)” value is recorded as 0.1. Moreover, the “COX1(h) % Inh.” value at COX1(h) came out at 54.8 % Inh. For the same molecule, in series [2], the “p21, PUMA and GDF15 levels” value is “markedly induced”. Further, the “Increases of p21, PUMA and GDF15 in p53R175H knock-out cells” value in [2] (same cell line with mutant p53R175H knocked out using CRISPR) was “not observed”. On mutant p53 [4], the “Cell growth inhibition after mutant p53 knock-down” value is on record as “attenuated by more than a log fold”. Besides, the “5-HT2B % Inh.” value at 5-HT2B stood at 58.7 % Inh. For the same molecule, the “More potent than the monomer from Zn-1” value with p53R175H cells worked out at 14 fold. For the same molecule, at COX2(h), the “COX2(h) % Inh.” value was found to be 50.7 % Inh. For the same molecule, in [1], the “Solubility DMSO 4 mg/ml” value is on record as “Yes”, the “Solubility DMSO 10 mg/ml” value is listed as “Yes”, the “Solubility EtOH 1 mg/ml” value was “YES” and the “Solubility EtOH 2 mg/ml” value was “Partial”. Besides, the “Solubility H2O:DMSO 1:1 0.5 mg/mL” value in series [1] is “No”.
As for “Zn[(E)-N,N-dimethyl-2-(1-(4-(2-morpholinoethoxy)pyridin-2-yl)ethylidene)hydrazine-1-carbothioamide]2 [ZN-9]”, in the series with human tumor cell lines, the EC50 was 18.1 nM, the “Fold (Zn-1/compound)” value was 0.1 and the “Fold (compound/Zn-1)” value was 6.7. For the same molecule, in series [1], the “Solubility DMSO 10 mg/ml” value is on record as “Yes” and the “Solubility EtOH 2 mg/ml” value is reported as “Yes”.
On to “Zn[(E)-N,N-dimethyl-2-(1-(4-(2-morpholinoethoxy)pyridin-2-yl)ethylidene)hydrazine-1-carbothioamide]2 bis mesylate salt [ZN-9 Mesylate salt]”, for which, in [1] (0.9% Saline), the “Solubility 0.9% Saline” value is 5000 to 10000 µg/mL.

The record behind these values is patent US12344626B2, “Pharmaceutical compounds and therapeutic methods” (RUTGERS, THE STATE UNIVERSITY OF NEW JERSEY, priority 2019, dated 2025).
